Measured values: patent US20030220524A1, “Sulfur containing compounds” (priority 2000, published 2003)

How the values were obtained:
mammalian cells = experiment: Antiproliferative activity, summary grouping on the basis of MTT assays; assay type: cell-based; details: in words
Method: Adherent cells were seeded at 67×10^3 cells/mL in a 96 well plate (Falcon, Mississauga, Ontario) the day prior to exposure to compound. Suspension cells were seeded at 27×10^4 cells/mL in a 96 well plate the day of exposure to compound. Mononucleated, T-cell depleted normal bone marrow cells were seeded at 67×10^4 cells/mL in a 96 well plate the day of exposure to compound. Compounds and solvent control were added to cells and assayed in triplicate or sextuplet. Following 48 h of incubation at 37° C. with 5% CO2, 40 μL of a 5 mg/mL solution of 3-[4,5-dimethylthiazol-2-yl]-2,5-diphenyltetrazolium bromide (MTT) substrate (Sigma) in Dulbecco's phosphate-buffered saline (D-PBS) was added. After 4 h of incubation at 37° C. with 5% CO2, the resulting violet formazan precipitate was solubilized by the addition of 80 μL of a 0.01 M HCI, 10% sodium dodecyl sulfate (SDS; Sigma) solution overnight at 37° C. with 5% CO2. The plates were then analyzed using the BioRad Benchmark Microplate Reader (BioRad Laboratories, Hercules, Calif.) at 570 nm to determine the optical density of the samples. MTT data was analyzed using Prism 3.0 (GraphPad Software, Inc., San Diego, Calif.) by the Chou-Talalay method. MTT graphs shown are a representative experiment.
Initially, the efficacy of ten synthetic OSCs was explored for their antiproliferative activity against mammalian cells. […]

KK leukemic cell line = experiment: TUNEL, flow cytometry; assay type: cell-based, human; details: 48 h
Method: (§1) Adherent cell lines were plated at 35×10^4 cells/60 cm^2 dish the day before exposure to compound. Suspension cells were seeded at 25×10^4 cells/mL in a 6 well dish (Falcon) the day of exposure to compound. Mononucleated, T-cell depleted normal bone marrow cells were seeded at 50×10^4 cells/mL in a 6 well dish the day of exposure to compound. Cells were exposed to solvent control or approximate MTT50 and MTT30 concentrations of the compound. After 48 h of exposure to the compound, cells were harvested and fixed with a final concentration of 4% formaldehyde. Fixed cells were stored at −20° C. in 70% ethanol for no more than 5 days. Approximately 10^5 cells were pelleted and labeled with 0.02 mM Biotin-dUTP and 12.5 U TdT enzyme in a 1× reaction buffer (200 mM potassium cacodylate, 25 mM Tris-HCl, 25 μg/mL bovine serum albumin, pH 6.6), 2.5 mM CoCl2 and 0.01 mM dTTP (Roche Molecular Biochemicals, Laval, QC, Canada) for 45 min at 37° C. Samples were washed and incubated in 200 μL of 1:1000 fluorescein isothiocyanate (FITC)-conjugated avidin (Sigma) in 4×SSC, 5% skim milk powder and 0.05% Tween-20 (Sigma). Following 1 h of mixing at room temperature, the samples were washed and resuspended in 500 μL of D-PBS containing 2.5 μg/mL DNase-free RNase (Boehringer Mannheim) and 10 μg/mL PI. Following a 30 min incubation at room temperature, cells were analyzed using a XL-MCL flow cytometer (Coulter Corporation, Miami, Fla.) and a FACScalibar cytometer (Becton Dickinson, San Jose, Calif.). Profiles shown are representative of one experiment.
as §1, with “? s” for “Cells”, “appr ? nate” for “approximate”, “of” for “of the”, “Pl.” for “PI.”

Compound: CS(C)(=O)=O [Compound A, dimethyl sulfone]
- Antiproliferative activity (grouping in Summary of Results and Notes to the data sets) (mammalian cells): No anti-proliferative properties

Compound: CSSCC(=O)c1ccccc1 [Compound P, phenacyl methyl disulphide]
- % TUNEL +ve (KK leukemic cell line; dose 50 uM): 47%
- % TUNEL +ve (KK leukemic cell line; dose 100 uM): 78%

Compound: CCC(=O)OCSSc1ccccc1 [Compound Q, 1-phenyl-1,2-dithiapropyl propionate]
- % TUNEL +ve (KK leukemic cell line; dose 25 uM): 43%
- % TUNEL +ve (KK leukemic cell line; dose 50 uM): 61%

Compound: CSSCCS(C)(=O)=O [F, 2,3,6-trithiaheptane 6,6,-dioxide]
- Antiproliferative activity (grouping in Summary of Results and Notes to the data sets) (mammalian cells): Anti-proliferative Activity
